Measured values taken from publication PMC6718548, “Tau pathology reduction with SM07883, a novel, potent, and selective oral DYRK1A inhibitor: A potential therapeutic for Alzheimer's disease” (Aging Cell, 2019).
Read-outs that look alike come from different tables or passages of the source.

Legend:
GSK‐3β = target: T1, GSK‐3β (Homo sapiens, UniProt P49841); test: Kinase IC50 (SelectScreen); format: biochemical; settings: Suppl. Table 2 comparison with commercially available inhibitors; read-out: Kinase IC50 GSK-3b
T1 construct: purchased Thermo Fisher SelectScreen service
T1 sequence (P49841 whole entry): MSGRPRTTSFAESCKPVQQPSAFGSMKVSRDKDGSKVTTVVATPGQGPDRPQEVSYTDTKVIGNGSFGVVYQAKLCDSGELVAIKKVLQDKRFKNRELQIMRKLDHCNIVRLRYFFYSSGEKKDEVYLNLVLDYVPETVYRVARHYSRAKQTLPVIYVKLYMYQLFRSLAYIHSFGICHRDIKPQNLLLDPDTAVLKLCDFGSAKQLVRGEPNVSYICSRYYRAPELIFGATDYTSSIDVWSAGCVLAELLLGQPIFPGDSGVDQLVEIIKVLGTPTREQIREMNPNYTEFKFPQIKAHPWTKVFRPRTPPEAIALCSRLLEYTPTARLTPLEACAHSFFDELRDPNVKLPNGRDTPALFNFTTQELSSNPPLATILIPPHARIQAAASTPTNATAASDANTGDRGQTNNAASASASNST

[1] = tested on: phosphorylated tau at Thr212 in HEK293T cells; test: pTau Thr212 sandwich ELISA in double-transfected HEK293T cells; format: cell-based, human; settings: HEK293T co-transfected with DYRK1A and MAPT, overnight treatment, single lot, read-out: Cell assay EC50 pTau at Thr212
Source text: For the generation of the DYRK1A- and MAPT-overexpressing cells, HEK293T cells were transiently transfected with DYRK1A and MAPT genes. Specifically, expression vectors pCMV6-XL4 and pCMV6-Entry expressing DYRK1A and MAPT, alongside an empty vector control (pCI, OriGene, Catalog #SC314641 and RC216166, respectively; Promega, Catalog #E1731) and the material was amplified and purified using a custom MaxiPrep service (GENEWIZ, South Plainfield, NJ).
(§1) For ELISA assays, native SH-SY5Y cells, or transiently double-transfected HEK293T cells were dissociated by treatment with trypsin-EDTA and seeded in 96-well flat-bottom cell culturing plate before administration of 3-fold serial dilution of SM07883 overnight.
(§2) Following compound treatment, cells were washed and lysed with 1x RIPA buffer containing phosphatase and protease inhibitors transferred to 96-well V-bottom collection plates for centrifugation and removal of insoluble material.
The pTau Thr212 ELISA 96-well flat-bottom plates, were coated with anti-HT7 capture antibody (Catalog MN1000, Thermo Fisher, Waltham, […]) diluted 1:300 in 1X PBS at 4°C. After overnight incubation, coated plates were washed with 1× PBS containing 0.05% Tween-20 and blocked for 1hr 2% BSA (A7030-50G, Sigma-Aldrich, St. Louis, MO), then washed prior to sample loading.
For the pTau Thr212 sandwich ELISA, cell lysates were directly transferred to the anti-HT7 capture, antibody-coated, and BSA-blocked ELISA plates for 2hrs. Supernatant was then removed, and plates were washed with 1× PBS-0.05% Tween-20, followed by addition of 100 µL per well anti-phosphorylated tau Thr212 antibody (Catalog 44-740G, Thermo Fisher) diluted 1:200 in 1× PBS for 2hrs. Plates were washed and probed with an anti-rabbit/HRP conjugate (Cell Signaling Technology, 7074S) for 1hr then washed before a TMB substrate solution (Catalog N301, Thermo Fisher) was added. When a deep blue color was observed, 100 µL per well of stop solution (Catalog N600, Thermo Fisher) was added.
(§3) Colorimetric detection of pT212Tau or pS396Tau signal was read at 450 nm using the Cytation 3 Cell Imaging Multi-Mode Reader (BioTek, Winooski, VT). The signal was used to plot, draw the curve fitting, and determine the EC50 value for SM07883 in Prism 7 (GraphPad, La Jolla, CA).

[2] = tested on: phosphorylated tau at Ser396 in SH-SY5Y cells; test: pSer396Tau ELISA in SH-SY5Y neuroblastoma cells; format: cell-based, human; settings: overnight (16 hr) treatment, single lot, read-out: Cell assay EC50 pTau at Ser396
Source text: as §1, §2, §3

DYRK1a = target: T2, DYRK1a (Homo sapiens, UniProt Q13627); test: DYRK1A kinase assay (Z-Lyte / SelectScreen IC50); format: biochemical; settings: Suppl. Table 2 comparison with commercially available inhibitors
T2 construct: purchased Thermo Fisher Scientific

Row | IC50 (GSK‐3β) [nM] | EC50 [2] [nM] | IC50 (DYRK1a) [nM] | EC50 ([2]; Homo sapiens) [nM] | Compound | EC50 [1] [nM] | EC50 ([1]; Homo sapiens, HEK-293T) [nM]
1 | > 10000 | > 10000 |  |  | CCN1/C(=C/C(C)=O)Sc2ccc(O)cc21 [INDY] | > 10000 | 
2 | > 10000 | 2500 | 83 |  | COC(=N)c1nc2ccc3ncnc(Nc4ccc(Cl)cc4Cl)c3c2s1 [EHT-5372] | 3800 | 
3 | > 10000 | > 10000 |  |  | CCN1/C(=C/C(C)=O)Sc2ccc(OC)cc21 [TG003] | > 10000 | 
4 |  |  | 761 | 6 | Cc1ccc(C(=O)Nc2c[nH]nc2C(=O)NCCCOC(C)C)cn1 [Compound A, 6-Methyl-N-[3-[[3-(1-methylethoxy)propyl]carbamoyl]-1H-pyrazol-4-yl]pyridine-3-carboxamide] |  | > 10000
5 |  |  |  | > 10000 | O=c1sn(-c2cccc3ccccc23)c(=O)n1Cc1ccccc1 [Tideglusib] |  | > 10000
6 | 1100 | 1400 |  |  | O=C1NC(Nc2ccccc2)=N/C1=C\c1ccc2c(c1)OCO2 [Leucettine L41] | 72 | 
7 |  |  |  | 5200 | O=C(O)c1ccc2c(c1)nc(Nc1cccc(Cl)c1)c1ccncc12 [CX-4945] |  | 428
8 |  |  |  | 252 | Cc1c[nH]c(-c2cnc(NCCNc3ccc(C#N)cn3)nc2-c2ccc(Cl)cc2Cl)n1 [CHIR-99021] |  | > 10000

Row | Compound | IC50 (GSK‐3β) [nM] | EC50 [2] [nM] | IC50 (DYRK1a) [nM] | EC50 ([2]; Homo sapiens) [nM] | EC50 [1] [nM] | EC50 ([1]; Homo sapiens, HEK-293T) [nM]
9 | O=C(O[C@@H]1Cc2c(O)cc(O)cc2O[C@@H]1c1cc(O)c(O)c(O)c1)c1cc(O)c(O)c(O)c1 [EGCG, Epigallocatechin gallate] | > 10000 | > 10000 | 1400 |  | > 10000 | 
10 | COc1ccc2c(c1)[nH]c1c(C)nccc12 [Harmine] |  |  |  | > 10000 |  | 233
